Experimental data: the supplement of paper PMC11986102

Key:
Experiment in all cases: OD600 after 10 h growth (baseline-subtracted); higher = more bacterial growth (less inhibition)
[1] = tested on: Klebsiella pneumoniae MKP103
Experimental: (§1)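 Broth microdilution growth assay in Mueller Hinton broth, 100 µL in 96-well plates, inoculated 1:200 from OD600 0.1 overnight cultures by pinning, 37 °C with shaking at 800 rpm, 1:2 serial dilutions from 128 µg/mL (64 µg/mL for Ebastine). The read-out is OD600 after 10 h; curves were baseline-corrected by subtracting the minimum of the 2nd-4th measurements. Three biological replicates, with water and DMSO no-compound controls.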

[2] = tested on: Escherichia coli CFT073 (UPEC)
Experimental: as §1

Escherichia coli IAI1 = tested on: Escherichia coli IAI1
Experimental: as §1

[3] = tested on: Staphylococcus aureus Newman
Experimental: as §1

[4] = tested on: Pseudomonas aeruginosa PA14
Experimental: as §1

CC(=O)N[C@H](Cc1ccc2ccccc2c1)C(=O)N[C@H](Cc1ccc(Cl)cc1)C(=O)N[C@H](Cc1cccnc1)C(=O)N[C@@H](CO)C(=O)N[C@@H](Cc1ccc(O)cc1)C(=O)N[C@H](CCCNC(N)=O)C(=O)N[C@@H](CC(C)C)C(=O)N[C@@H](CCCNC(=N)N)C(=O)N1CCC[C@H]1C(=O)N[C@H](C)C(N)=O [Cetrorelix]
OD600 after 10 h growth
Settings | Escherichia coli IAI1 | [1] | [2] | [3] | [4]
0.1 µg/mL | 0.865 | 0.674 | 0.804 | 1.08 | 0.741
0.2 µg/mL | 0.872 | 0.679 | 0.832 | 1.08 | 0.742
0.5 µg/mL | 0.829 | 0.687 | 0.8273 | 1.08 | 0.742
1 µg/mL | 0.828 | 0.693 | 0.812 | 1.1 | 0.727
2 µg/mL | 0.831 | 0.702 | 0.827 | 1.1 | 0.726
4 µg/mL | 0.821 | 0.701 | 0.83 | 1.11 | 0.736
8 µg/mL | 0.831 | 0.707 | 0.806 | 1.11 | 0.736
16 µg/mL | 0.837 | 0.712 | 0.81 | 1.117 | 0.754
32 µg/mL | 0.814 | 0.717 | 0.792 | 1.117 | 0.763
64 µg/mL | 0.8 | 0.69 | 0.807 | 1.09 | 0.749
128 µg/mL | 0.786 | 0.679 | 0.77 | 1.05 | 0.756

CC(C)(C)c1ccc(C(=O)CCCN2CCC(OC(c3ccccc3)c3ccccc3)CC2)cc1 [Ebastine]
OD600 after 10 h growth
Settings | Escherichia coli IAI1 | [1] | [2] | [3] | [4]
0.05 µg/mL | 0.808 | 0.665 | 0.78 | 1.11 | 0.75
0.1 µg/mL | 0.807 | 0.667 | 0.781 | 1.08 | 0.752
0.2 µg/mL | 0.796 | 0.666 | 0.783 | 1.14 | 0.742
0.5 µg/mL | 0.793 | 0.666 | 0.789 | 1.06 | 0.744
1 µg/mL | 0.812 | 0.671 | 0.798 | 1.15 | 0.754
2 µg/mL | 0.816 | 0.681 | 0.792 | 1.1 | 0.842
4 µg/mL | 0.808 | 0.787 | 0.797 | 1.05 | 0.749
8 µg/mL | 0.81 | 0.678 | 0.803 | 1.03 | 0.743
16 µg/mL | 0.848 | 0.661 | 0.792 | 0.987 | 0.725
32 µg/mL | 0.778 | 0.647 | 0.775 | 0.991 | 0.697
64 µg/mL | 0.754 | 0.613 | 0.755 | 1.02 | 0.603

COc1cc2c(cc1Cc1cccc(Cl)c1F)c(=O)c(C(=O)O)cn2[C@H](CO)C(C)C [Elvitegravir]
OD600 after 10 h growth
Settings | Escherichia coli IAI1 | [1] | [2] | [3] | [4]
0.1 µg/mL | 0.803 | 0.671 | 0.782 | 1.07 | 0.752
0.2 µg/mL | 0.846 | 0.666 | 0.768 | 1.07 | 0.747
0.5 µg/mL | 0.816 | 0.672 | 0.793 | 1.08 | 0.751
1 µg/mL | 0.808 | 0.664 | 0.81 | 1.08 | 0.748
2 µg/mL | 0.82 | 0.671 | 0.812 | 1.08 | 0.761
4 µg/mL | 0.818 | 0.675 | 0.804 | 0.309 | 0.756
8 µg/mL | 0.834 | 0.681 | 0.793 | 0.0327 | 0.758
16 µg/mL | 0.836 | 0.675 | 0.807 | 0.0197 | 0.743
32 µg/mL | 0.812 | 0.651 | 0.806 | 0.00533 | 0.689
64 µg/mL | 0.784 | 0.625 | 0.766 | 0 | 0.661
128 µg/mL | 0.771 | 0.596 | 0.733 | 0.013 | 0.588
